Test results from the supplement of paper PMC10307832.

What was measured:
Test in all cases: relative viability (nuclei count vs DMSO), 5 days (fraction); higher = more cells survive
NCI-H1648 = test system: NCI-H1648
Summary of the method: (§1)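 Relative viability equals treated-well nuclei counts divided by vehicle-well nuclei counts. Counts came from 4× images of lung cancer cell lines grown in 1536-well plates for 5 days after pin-tool dosing on the day after seeding. Dosing used one drug alone or a fixed anchor-drug dose plus five library-drug doses (not always all listed) in √10 steps, and values are medians of duplicate plates.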

SW 900 = test system: SW 900
Summary of the method: as §1

NCI-H2342 = test system: NCI-H2342
Summary of the method: as §1

NCI-H522 = test system: NCI-H522
Summary of the method: as §1

NCI-H1703 = test system: NCI-H1703
Summary of the method: as §1

EBC-1 = test system: EBC-1
Summary of the method: as §1

A549 = test system: A549
Summary of the method: as §1

IA-LM = test system: IA-LM
Summary of the method: as §1

Calu-6 = test system: Calu-6
Summary of the method: as §1

NCI-H1563 = test system: NCI-H1563
Summary of the method: as §1

NCI-H1299 = test system: NCI-H1299
Summary of the method: as §1

O=C(O)CCCCC(CCSCc1ccccc1)SCc1ccccc1 (stereo unspecified) [CPI-613] + CC(=O)Nc1cccc(-n2c(=O)n(C3CC3)c(=O)c3c(Nc4ccc(I)cc4F)n(C)c(=O)c(C)c32)c1 [Trametinib] (partner 0.02 µM)
relative viability (NCI-H1648; first compound 5 µM): 0.454 | relative viability (NCI-H1648; first compound 15.81 µM): 0.376 | relative viability (NCI-H1648; first compound 50 µM): 0.533 | relative viability (NCI-H1648; first compound 158.11 µM): 0.218 | relative viability (NCI-H1648; first compound 500 µM): 0.14 | relative viability (SW 900; first compound 5 µM): 0.701 | relative viability (SW 900; first compound 50 µM): 0.706 | relative viability (SW 900; first compound 158.11 µM): 0.359 | relative viability (SW 900; first compound 500 µM): 0.0323 | relative viability (NCI-H2342; first compound 5 µM): 0.747 | relative viability (NCI-H2342; first compound 15.81 µM): 0.888 | relative viability (NCI-H2342; first compound 50 µM): 0.977 | relative viability (NCI-H2342; first compound 158.11 µM): 0.786 | relative viability (NCI-H2342; first compound 500 µM): 0.955 | relative viability (NCI-H522; first compound 5 µM): 0.707 | relative viability (NCI-H522; first compound 15.81 µM): 0.739 | relative viability (NCI-H522; first compound 50 µM): 0.751 | relative viability (NCI-H522; first compound 158.11 µM): 0.651 | relative viability (NCI-H522; first compound 500 µM): 0.284

O=c1[nH]c2ccccc2n1C1CCN(CCCC(c2ccc(F)cc2)c2ccc(F)cc2)CC1 [Pimozide] + CC(=O)Nc1cccc(-n2c(=O)n(C3CC3)c(=O)c3c(Nc4ccc(I)cc4F)n(C)c(=O)c(C)c32)c1 [Trametinib] (partner 0.02 µM)
relative viability (NCI-H1648; first compound 0.08 µM): 0.423 | relative viability (NCI-H1648; first compound 0.8 µM): 0.34 | relative viability (NCI-H1648; first compound 2.53 µM): 0.373 | relative viability (NCI-H1648; first compound 8 µM): 0.416 | relative viability (SW 900; first compound 0.08 µM): 0.743 | relative viability (SW 900; first compound 0.253 µM): 0.801 | relative viability (SW 900; first compound 2.53 µM): 0.72 | relative viability (SW 900; first compound 8 µM): 0.802 | relative viability (NCI-H2342; first compound 0.08 µM): 0.661 | relative viability (NCI-H2342; first compound 0.253 µM): 0.872 | relative viability (NCI-H2342; first compound 0.8 µM): 0.676 | relative viability (NCI-H2342; first compound 2.53 µM): 0.826 | relative viability (NCI-H2342; first compound 8 µM): 0.759 | relative viability (NCI-H522; first compound 0.08 µM): 0.738 | relative viability (NCI-H522; first compound 0.253 µM): 0.751 | relative viability (NCI-H522; first compound 0.8 µM): 0.733 | relative viability (NCI-H522; first compound 2.53 µM): 0.746 | relative viability (NCI-H522; first compound 8 µM): 0.811

Cc1cnc(-c2cnc(NCCNc3ccc(C#N)cn3)nc2-c2ccc(Cl)cc2Cl)[nH]1 + CC(=O)Nc1cccc(-n2c(=O)n(C3CC3)c(=O)c3c(Nc4ccc(I)cc4F)n(C)c(=O)c(C)c32)c1 [Trametinib] (partner 0.02 µM)
relative viability (NCI-H1648; first compound 0.08 µM): 0.5 | relative viability (NCI-H1648; first compound 0.253 µM): 0.381 | relative viability (NCI-H1648; first compound 0.8 µM): 0.476 | relative viability (NCI-H1648; first compound 2.53 µM): 0.456 | relative viability (SW 900; first compound 0.08 µM): 0.905 | relative viability (SW 900; first compound 0.253 µM): 0.629 | relative viability (SW 900; first compound 0.8 µM): 0.772 | relative viability (SW 900; first compound 2.53 µM): 0.765 | relative viability (NCI-H2342; first compound 0.08 µM): 0.923 | relative viability (NCI-H2342; first compound 0.253 µM): 0.653 | relative viability (NCI-H2342; first compound 0.8 µM): 0.801 | relative viability (NCI-H2342; first compound 2.53 µM): 0.697 | relative viability (NCI-H522; first compound 0.08 µM): 0.909 | relative viability (NCI-H522; first compound 0.253 µM): 0.719 | relative viability (NCI-H522; first compound 0.8 µM): 0.799 | relative viability (NCI-H522; first compound 2.53 µM): 0.722

O=c1[nH]c2ccccc2n1C1CCN(CCCC(c2ccc(F)cc2)c2ccc(F)cc2)CC1 [Pimozide] + CC(=O)c1c(C)c2cnc(Nc3ccc(N4CCNCC4)cn3)nc2n(C2CCCC2)c1=O [Palbociclib] (partner 0.5 µM)
relative viability (NCI-H1648; first compound 0.08 µM): 0.301 | relative viability (NCI-H1648; first compound 0.8 µM): 0.233 | relative viability (NCI-H1648; first compound 2.53 µM): 0.282 | relative viability (NCI-H1648; first compound 8 µM): 0.31 | relative viability (SW 900; first compound 0.08 µM): 0.526 | relative viability (SW 900; first compound 0.253 µM): 0.572 | relative viability (SW 900; first compound 2.53 µM): 0.511 | relative viability (SW 900; first compound 8 µM): 0.443 | relative viability (NCI-H2342; first compound 0.08 µM): 0.573 | relative viability (NCI-H2342; first compound 0.253 µM): 0.526 | relative viability (NCI-H2342; first compound 0.8 µM): 0.436 | relative viability (NCI-H2342; first compound 2.53 µM): 0.484 | relative viability (NCI-H2342; first compound 8 µM): 0.507 | relative viability (NCI-H522; first compound 0.08 µM): 0.766 | relative viability (NCI-H522; first compound 0.253 µM): 0.785 | relative viability (NCI-H522; first compound 0.8 µM): 0.94 | relative viability (NCI-H522; first compound 2.53 µM): 0.891 | relative viability (NCI-H522; first compound 8 µM): 0.901

O=C(O)CCCCC(CCSCc1ccccc1)SCc1ccccc1 (stereo unspecified) [CPI-613] + C[C@@H](Oc1cc(-c2cnn(C3CCNCC3)c2)cnc1N)c1c(Cl)ccc(F)c1Cl [Crizotinib] (partner 1 µM)
relative viability (NCI-H1703; first compound 5 µM): 0.582 | relative viability (NCI-H1703; first compound 15.81 µM): 0.487 | relative viability (NCI-H1703; first compound 50 µM): 0.531 | relative viability (NCI-H1703; first compound 158.11 µM): 0.31 | relative viability (NCI-H1703; first compound 500 µM): 0.284 | relative viability (EBC-1; first compound 5 µM): 0.179 | relative viability (EBC-1; first compound 15.81 µM): 0.198 | relative viability (EBC-1; first compound 50 µM): 0.197 | relative viability (EBC-1; first compound 158.11 µM): 0.133 | relative viability (EBC-1; first compound 500 µM): 0.167 | relative viability (A549; first compound 5 µM): 0.738 | relative viability (A549; first compound 15.81 µM): 0.595 | relative viability (A549; first compound 50 µM): 0.526 | relative viability (A549; first compound 158.11 µM): 0.191 | relative viability (A549; first compound 500 µM): 0.145 | relative viability (IA-LM; first compound 5 µM): 0.584 | relative viability (IA-LM; first compound 15.81 µM): 0.549 | relative viability (IA-LM; first compound 50 µM): 0.621 | relative viability (IA-LM; first compound 158.11 µM): 0.454 | relative viability (IA-LM; first compound 500 µM): 0.22 | relative viability (Calu-6; first compound 5 µM): 0.802 | relative viability (Calu-6; first compound 15.81 µM): 0.622 | relative viability (Calu-6; first compound 50 µM): 0.741 | relative viability (Calu-6; first compound 158.11 µM): 0.556 | relative viability (Calu-6; first compound 500 µM): 0.346 | relative viability (NCI-H1563; first compound 5 µM): 0.834 | relative viability (NCI-H1563; first compound 15.81 µM): 0.877 | relative viability (NCI-H1563; first compound 50 µM): 0.857 | relative viability (NCI-H1563; first compound 158.11 µM): 0.477 | relative viability (NCI-H1563; first compound 500 µM): 0.211 | relative viability (NCI-H1299; first compound 5 µM): 0.926 | relative viability (NCI-H1299; first compound 15.81 µM): 0.942 | relative viability (NCI-H1299; first compound 50 µM): 0.944 | relative viability (NCI-H1299; first compound 158.11 µM): 0.889 | relative viability (NCI-H1299; first compound 500 µM): 0.861
